Results reported in paper PMC4518100, “Design and Synthesis of New Benzimidazole and Pyrimidine Derivatives as α-glucosidase Inhibitor” (Iranian Journal of Pharmaceutical Research : IJPR, 2015).

Legend:
yeast α-glucosidase = yeast α-glucosidase (Saccharomyces cerevisiae, UniProt P53341); experiment: Yeast α-glucosidase inhibition assay (pNPG substrate, absorbance at 405 nm); format: biochemical; details: qualitative statement
Protocol: (§1) In this study the inhibition study of both yeast and mammalian α-glucosidase were measured through the earlier reported bioassay method with minor changes ([4]). This test was carried out using the substrate p-nitrophenyl-α-D-glucopyranoside (pNPG), which is hydrolyzed by α-glucosidase to release the product p-nitrophenol, a color agent that can be monitored at 405 nm. For yeast α-glucosidase, mixture contained 20 µL of the enzyme (0.5 unit/mL), 120 µL of 0.1 M phosphate buffer (pH 6.9) and 10 µL of test sample at various concentrations. The mixed solution was incubated in 96-well plates at 37 °C for 15 min. After preincubation the enzymatic reaction was initiated by adding 20 µL of 5 mM pNPG solution in 0.1 M phosphate buffer (pH 6.9) and the reaction mixture was incubated for another 15 min at 37 °C. The reaction was terminated by adding 80 µL of 0.2 M sodium carbonate solution and then absorbance reading was recorded at 405 nm by microplate reader. The reaction system without tested samples was used as control and the system without α-glucosidase was used as blank for correcting the background absorbance. The inhibitory rate of sample on α-glucosidase was calculated by the following formula:
(§2) % Inhibition=control absorbance-sample absorbance/control absorbance×100

[1] = system: rat intestinal α-glucosidase; experiment: Mammalian α-glucosidase inhibition assay (rat intestinal acetone powder, pNPG substrate); format: biochemical; details: for inhibition of rat intestinal α-glucosidase (in words): qualitative statement; for IC50: rat intestinal α-glucosidase, pNPG, pH 6.9, 37 °C, na: no activity
Protocol: as §1, §2
The mammalian α-glucosidase were prepared from rat intestinal acetone powder (1 g), which was extracted by 25 mL of 0.1 M phosphate buffer (pH 6.9) containing 5 mM EDTA at ambient temperature. After sonication (10 min) and centrifugation (10000×g, 20 min) the obtained supernatant was dialyzed against […] phosphate buffer (pH 6.9) for 24 h. The final supernatant was used for the assay. The mammalian α-glucosidase inhibition test was carried out in the same manner as that of the yeast α-glucosidase.

Chain of yeast α-glucosidase (P53341 whole entry): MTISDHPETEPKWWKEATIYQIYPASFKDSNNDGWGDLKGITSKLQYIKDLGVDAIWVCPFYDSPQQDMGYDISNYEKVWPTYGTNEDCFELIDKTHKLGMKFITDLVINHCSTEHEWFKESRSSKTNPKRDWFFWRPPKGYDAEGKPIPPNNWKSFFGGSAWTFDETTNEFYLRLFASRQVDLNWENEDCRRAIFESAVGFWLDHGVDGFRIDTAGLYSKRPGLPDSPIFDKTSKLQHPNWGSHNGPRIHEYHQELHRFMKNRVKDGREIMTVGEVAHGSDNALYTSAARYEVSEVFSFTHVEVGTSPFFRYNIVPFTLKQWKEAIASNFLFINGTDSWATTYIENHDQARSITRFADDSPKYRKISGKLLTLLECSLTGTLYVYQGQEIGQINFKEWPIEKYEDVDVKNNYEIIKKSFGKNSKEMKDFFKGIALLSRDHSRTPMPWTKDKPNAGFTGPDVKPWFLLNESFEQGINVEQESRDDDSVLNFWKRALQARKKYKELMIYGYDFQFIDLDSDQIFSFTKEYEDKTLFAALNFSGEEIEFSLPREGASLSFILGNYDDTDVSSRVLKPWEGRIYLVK

Structure (SMILES)	inhibition of yeast α-glucosidase (in words) (yeast α-glucosidase)	inhibition of rat intestinal α-glucosidase (in words) [1]	IC50 [1] [µM]
O=C1c2ccccc2C(=O)N1C(Cc1ccccc1)c1nc2ccccc2[nH]1 (stereo not shown) [4c, 2-(1-(1H-benzo(d)imidazol-2-yl)-2-phenylethyl)isoindoline-1,3-dione]	significantly higher inhibitory action than acarbose	significantly higher inhibitory action than acarbose	48.5 ± 2.3
O=C1c2ccccc2C(=O)N1C(Cc1ccccc1)C1=Nc2cccc3cccc(c23)N1 (stereo not shown) [5c, 2-(1-(1H-perimidin-2-yl)-2-phenylethyl)isoindoline-1,3-dione]	significantly higher inhibitory action than acarbose	significantly higher inhibitory action than acarbose	35.9 ± 2.3
C[C@H]1O[C@H](O[C@H]2[C@H](O)[C@@H](O)[C@@H](O[C@H]3[C@H](O)[C@@H](O)C(O)O[C@@H]3CO)O[C@@H]2CO)[C@H](O)[C@@H](O)[C@@H]1N[C@H]1C=C(CO)[C@@H](O)[C@H](O)[C@H]1O (stereo partly shown) [Acarbose, reference compound]	–	–	37.5 ± 1.4
O=C1c2ccccc2C(=O)N1C(Cc1ccc(O)cc1)c1nc2ccccc2[nH]1 (stereo not shown) [4d, 2-(1-(1H-benzo(d)imidazol-2-yl)-2-(4-hydroxyphenyl)ethyl)isoindoline-1,3-dione]	significantly higher inhibitory action than acarbose	significantly higher inhibitory action than acarbose	36.7 ± 2.9
CC(C)CC(C1=Nc2cccc3cccc(c23)N1)N1C(=O)c2ccccc2C1=O (stereo not shown) [5e, 2-(3-methyl-1-(1H-perimidin-2-yl)butyl)isoindoline-1,3-dione]	did not exert good inhibition activity	did not exert good inhibition activity	–
CCC(C)C(C1=Nc2cccc3cccc(c23)N1)N1C(=O)c2ccccc2C1=O (stereo not shown) [5b, 2-(2-methyl-1-(1H-perimidin-2-yl)butyl)isoindoline-1,3-dione]	did not exert good inhibition activity	did not exert good inhibition activity	–
O=C1c2ccccc2C(=O)N1C(Cc1ccc(O)cc1)C1=Nc2cccc3cccc(c23)N1 (stereo not shown) [5d, 2-(2-(4-hydroxyphenyl)-1-(1H-perimidin-2-yl)ethyl)isoindoline-1,3-dione]	significantly higher inhibitory action than acarbose	significantly higher inhibitory action than acarbose	21.8 ± 1.7
O=C1c2ccccc2C(=O)N1CC1=Nc2cccc3cccc(c23)N1 [5a, 2-((1H-perimidin-2-yl)methyl)isoindoline-1,3-dione]	did not exert good inhibition activity	did not exert good inhibition activity	–
